Laboratory results as given in article doi:10.64898/2025.12.30.696991 (bioRxiv, 2026).

Assays:
Experiment in all cases: Antibiotic disc inhibition zone on Mueller-Hinton agar
Conditions in all cases: experiment performed twice
[1] = tested on: Susc. S. Typhimurium (ATCC700720); assay type: cell-based, Salmonella enterica serovar Typhimurium
Procedure: (§1) Susceptible (ATCC 700720) and MDR (ATCC 700408) strains of S. enterica serovar Typhimurium were obtained from American Type Culture Collection (ATCC Manassas, VA) and cultured in nutrient broth (BD Difco, Detroit, MA). Murine macrophage cell line RAW 264.7 (ATCC TIB-71) was maintained in Dulbecco's modified Eagle's medium (DMEM) (GIBCO, Invitrogen, Carlsbad, CA) supplemented with 10% fetal bovine serum (FBS) (GIBCO) and 1% penicillin-streptomycin (P/S) (GIBCO). Cells were cultured at 37°C in a 5% CO2 atmosphere and used up to passage 10 once received from ATCC.

[2] = tested on: MDR S. Typhimurium (ATCC700408); assay type: cell-based, Salmonella enterica serovar Typhimurium
Procedure: as §1

E. coli (TOP10) = assay type: cell-based, Escherichia coli
Procedure: as §1, with “ATCC. Susceptible and MDR activity of S. Typhimurium was confirmed on Mueller-Hinton agar (BD Difco, Detroit, MA) plates with antibiotic discs (Thermo Fisher Scientific, Waltham, MA) and compared to Escherichia coli (TOP10) and S. Typhimurium XEN-33 (Table 3).” for “ATCC.”

S. Typhimurium (XEN-33) = assay type: cell-based, Salmonella enterica serovar Typhimurium

Compound | Disc inhibition zone (diameter) [1] [mm] | Disc inhibition zone (diameter) [2] [mm] | Disc inhibition zone (diameter) (E. coli (TOP10)) [mm] | Disc inhibition zone (diameter) (S. Typhimurium (XEN-33)) [mm]
O=C(O)c1cn(C2CC2)c2cc(N3CCNCC3)c(F)cc2c1=O [Ciprofloxacin] | 30 | 30 | 37 | 25
CC1(C)S[C@@H]2[C@H](NC(=O)[C@H](N)c3ccccc3)C(=O)N2[C@H]1C(=O)O [Ampicillin] | 19 | 0 | 17 | 18
O=C(N[C@H](CO)[C@H](O)c1ccc([N+](=O)[O-])cc1)C(Cl)Cl [Chloramphenicol] | 24 | 0 | 28 | 24
NC[C@H]1O[C@H](O[C@H]2[C@H](O)[C@@H](O[C@H]3O[C@H](CO)[C@@H](O)[C@H](N)[C@H]3O)[C@H](N)C[C@@H]2N)[C@H](O)[C@@H](O)[C@@H]1O [Kanamycin] | 17 | 17 | 20 | 0
CNC(C)C1CCC(N)C(OC2C(N)CC(N)C(OC3OCC(C)(O)C(NC)C3O)C2O)O1 (centres unmarked) [Gentamicin] | 17 | 18 | 17 | 18
Cotrimoxazole | 25 | 24 | 29 | 0
CN(C)[C@@H]1C(O)=C(C(N)=O)C(=O)[C@@]2(O)C(O)=C3C(=O)c4c(O)cccc4[C@@](C)(O)[C@H]3C[C@@H]12 [Tetracycline] | 22 | 13 | 24 | 0
CCn1cc(C(=O)O)c(=O)c2ccc(C)nc21 [Nalidixic Acid] | 21 | 21 | 30 | 20
[H]/N=C(/N)N[C@H]1[C@H](O)[C@@H](O)[C@H](O[C@@H]2O[C@@H](C)[C@](O)(C=O)[C@H]2O[C@@H]2O[C@@H](CO)[C@H](O)[C@@H](O)[C@@H]2NC)[C@@H](N/C(N)=N\[H])[C@@H]1O [Streptomycin] | 12 | 0 | 0 | 13
C[C@H]1COc2c(N3CCN(C)CC3)c(F)cc3c(=O)c(C(=O)O)cn1c23 [Levofloxacin] | 32 | 32 | 34 | 27
CO/N=C(\C(=O)N[C@@H]1C(=O)N2C(C(=O)O)=C(CSc3nc(=O)c(O)nn3C)CS[C@H]12)c1csc(N)n1 [Ceftriaxo] | 26 | 28 | 30 | 26
